The subject of the assay is CD2F1 mice, L1210 leukemia ip, survival T/C. Put plainly: NCI In Vivo Anticancer Drug Screen. Data for tumor model L1210 Leukemia (intraperitoneal) in CD2F1 (CDF1) mice. The conditions noted are these: endpoint: mean survival time, higher = longer survival. Summed up: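 Vehicle-treated tumor-bearing mice served as controls (C) for compound-treated mice (T). Reported figure is T divided by C.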

T/C data for six molecules are collected here from PubChem BioAssay AID256 (DTP/NCI, 2004).

Inconclusive results and toxic doses are left out.

In the case of `C[C@]12C=CC(=O)C=C1CC[C@@H]1[C@@H]2C(=O)C[C@@]2(C)[C@H]1CC[C@]2(O)C(=O)CO`, the T/C runs as follows: (dose: 6.25 mg/kg/injection, schedule: Q03HX008 (ip), vehicle: saline) 98 % of control; (dose: 6.25 mg/kg/injection, schedule: Q03HX016 (ip), vehicle: saline) 97 % of control; (dose: 6.25 mg/kg/injection, schedule: Q03HX024 (ip), vehicle: saline) 100 % of control; (dose: 12.5 mg/kg/injection, schedule: Q03HX008 (ip), vehicle: saline) 98 % of control; (dose: 12.5 mg/kg/injection, schedule: Q03HX016 (ip), vehicle: saline) 98 % of control; (dose: 12.5 mg/kg/injection, schedule: Q03HX024 (ip), vehicle: saline) 96 % of control. The T/C (dose: 25.0 mg/kg/injection, schedule: Q01DX009 (ip), vehicle: saline) was 102 % of control; the T/C (dose: 25.0 mg/kg/injection, schedule: Q03HX008 (ip), vehicle: saline) is 101 % of control; the T/C (dose: 25.0 mg/kg/injection, schedule: Q03HX016 (ip), vehicle: saline) was 104 % of control; the T/C (dose: 25.0 mg/kg/injection, schedule: Q03HX024 (ip), vehicle: saline) was 95 % of control; the T/C (dose: 50.0 mg/kg/injection, schedule: Q01DX001 (ip), vehicle: saline) was 93 % of control; the T/C (dose: 50.0 mg/kg/injection, schedule: Q01DX001 (oral), vehicle: saline) was 105 % of control. Also, the T/C runs as follows: (dose: 50.0 mg/kg/injection, schedule: Q01DX009 (ip), vehicle: saline) 102 % of control; (dose: 50.0 mg/kg/injection, schedule: Q01DX009 (oral), vehicle: saline) 100 % of control; (dose: 50.0 mg/kg/injection, schedule: Q03HX008 (ip), vehicle: saline) 105 % of control; (dose: 50.0 mg/kg/injection, schedule: Q03HX016 (ip), vehicle: saline) 101 % of control; (dose: 50.0 mg/kg/injection, schedule: Q03HX024 (ip), vehicle: saline) 101 % of control; (dose: 50.0 mg/kg/injection, schedule: Q04DX003 (ip), vehicle: saline) 100 % of control. In addition, the T/C runs as follows: (dose: 50.0 mg/kg/injection, schedule: Q08DX002 (ip), vehicle: saline) 90 % of control; (dose: 100.0 mg/kg/injection, schedule: Q01DX001 (ip), vehicle: saline) 102 % of control; (dose: 100.0 mg/kg/injection, schedule: Q01DX001 (oral), vehicle: saline) 103 % of control; (dose: 100.0 mg/kg/injection, schedule: Q01DX009 (ip), vehicle: saline) 103 % of control; (dose: 100.0 mg/kg/injection, schedule: Q01DX009 (oral), vehicle: saline) 96 % of control; (dose: 100.0 mg/kg/injection, schedule: Q01DX009 (sc), vehicle: steriod suspending solution) 107 % of control. Also, the T/C is 105 % of control (dose: 100.0 mg/kg/injection, schedule: Q03HX008 (ip), vehicle: saline); 98 % of control (dose: 100.0 mg/kg/injection, schedule: Q03HX016 (ip), vehicle: saline); 101 % of control (dose: 100.0 mg/kg/injection, schedule: Q03HX024 (ip), vehicle: saline); 100 % of control (dose: 100.0 mg/kg/injection, schedule: Q04DX003 (ip), vehicle: saline); 91 % of control (dose: 100.0 mg/kg/injection, schedule: Q08DX002 (ip), vehicle: saline); 104 % of control (dose: 200.0 mg/kg/injection, schedule: Q01DX001 (ip), vehicle: saline). Besides, the T/C (dose: 200.0 mg/kg/injection, schedule: Q01DX001 (oral), vehicle: saline) is 104 % of control; the T/C (dose: 200.0 mg/kg/injection, schedule: Q01DX009 (ip), vehicle: saline) was 90 % of control; the T/C (dose: 200.0 mg/kg/injection, schedule: Q01DX009 (oral), vehicle: saline) is 98 % of control; the T/C (dose: 200.0 mg/kg/injection, schedule: Q01DX009 (sc), vehicle: steriod suspending solution) is 107 % of control; the T/C (dose: 200.0 mg/kg/injection, schedule: Q04DX003 (ip), vehicle: saline) was 107 % of control; the T/C (dose: 200.0 mg/kg/injection, schedule: Q08DX002 (ip), vehicle: saline) was 93 % of control. The T/C reads like this: (dose: 400.0 mg/kg/injection, schedule: Q01DX001 (ip), vehicle: saline) 107 % of control; (dose: 400.0 mg/kg/injection, schedule: Q01DX001 (oral), vehicle: saline) 105 % of control; (dose: 400.0 mg/kg/injection, schedule: Q01DX009 (ip), vehicle: saline) 103 % of control; (dose: 400.0 mg/kg/injection, schedule: Q01DX009 (oral), vehicle: saline) 91 % of control; (dose: 400.0 mg/kg/injection, schedule: Q01DX009 (sc), vehicle: steriod suspending solution) 104 % of control; (dose: 400.0 mg/kg/injection, schedule: Q04DX003 (ip), vehicle: saline) 100 % of control. In addition, the T/C reads like this: (dose: 400.0 mg/kg/injection, schedule: Q08DX002 (ip), vehicle: saline) 89 % of control; (dose: 800.0 mg/kg/injection, schedule: Q01DX001 (ip), vehicle: saline) 107 % of control; (dose: 800.0 mg/kg/injection, schedule: Q01DX001 (oral), vehicle: saline) 104 % of control; (dose: 800.0 mg/kg/injection, schedule: Q01DX009 (oral), vehicle: saline) 103 % of control; (dose: 800.0 mg/kg/injection, schedule: Q01DX009 (sc), vehicle: steriod suspending solution) 98 % of control; (dose: 800.0 mg/kg/injection, schedule: Q04DX003 (ip), vehicle: saline) 95 % of control. The T/C (dose: 800.0 mg/kg/injection, schedule: Q08DX002 (ip), vehicle: saline) was 94 % of control.

For `COc1cc(OC)c(/C=C/c2ccc3ccccc3[n+]2C)c(OC)c1`, the T/C is, setting by setting: (dose: 0.31 mg/kg/injection, schedule: Q01DX009 (ip), vehicle: saline) 103 % of control; (dose: 0.62 mg/kg/injection, schedule: Q01DX009 (ip), vehicle: saline) 114 % of control; (dose: 1.25 mg/kg/injection, schedule: Q01DX009 (ip), vehicle: saline) 121 % of control.

On to `COc1ccccc1NC(=O)Oc1cccc(OC(=O)c2ccccc2)c1`, for which the T/C is 96 % of control (dose: 100.0 mg/kg/injection, schedule: Q04DX002 (ip), vehicle: saline with Tween-80); 103 % of control (dose: 200.0 mg/kg/injection, schedule: Q04DX002 (ip), vehicle: saline with Tween-80); 88 % of control (dose: 400.0 mg/kg/injection, schedule: Q04DX002 (ip), vehicle: saline with Tween-80).

With `O=[N+]([O-])c1ccccc1CSc1ncnc2nc[nH]c12`, the T/C (dose: 50.0 mg/kg/injection, schedule: Q01DX009 (ip), vehicle: saline with Tween-80) was 110 % of control; the T/C (dose: 50.0 mg/kg/injection, schedule: Q04DX003 (ip), vehicle: saline with Tween-80) is 108 % of control; the T/C (dose: 100.0 mg/kg/injection, schedule: Q01DX009 (ip), vehicle: saline with Tween-80) was 121 % of control; the T/C (dose: 100.0 mg/kg/injection, schedule: Q04DX003 (ip), vehicle: saline with Tween-80) was 110 % of control; the T/C (dose: 132.0 mg/kg/injection, schedule: Q04DX003 (ip), vehicle: saline with Tween-80) is 108 % of control; the T/C (dose: 200.0 mg/kg/injection, schedule: Q01DX009 (ip), vehicle: saline with Tween-80) was 158 % of control.

For the molecule `O=C1C(Cl)=CC(=NS(=O)(=O)c2ccccc2)C=C1Cl`, the T/C reads like this: (dose: 6.25 mg/kg/injection, schedule: Q04DX003 (ip), vehicle: saline with Tween-80) 100 % of control; (dose: 12.5 mg/kg/injection, schedule: Q04DX003 (ip), vehicle: saline with Tween-80) 94 % of control; (dose: 25.0 mg/kg/injection, schedule: Q04DX003 (ip), vehicle: saline with Tween-80) 103 % of control.

As to `CC[C@](C)(O)C(=O)O[C@H]1C(=O)O[C@@H]2C[C@H]3C(C)=CC(=O)[C@@H](O)[C@]3(C)[C@H]3[C@@]4(O)OC[C@]32[C@@H]1[C@@H](C)[C@H]4O`, the T/C (dose: 12.5 micrograms/kg/injection, schedule: Q01DX009 (ip), vehicle: saline with Tween-80) was 101 % of control; the T/C (dose: 25.0 micrograms/kg/injection, schedule: Q01DX009 (ip), vehicle: saline with Tween-80) was 100 % of control; the T/C (dose: 50.0 micrograms/kg/injection, schedule: Q01DX009 (ip), vehicle: saline with Tween-80) was 105 % of control; the T/C (dose: 100.0 micrograms/kg/injection, schedule: Q01DX009 (ip), vehicle: saline with Tween-80) was 112 % of control.
